# According to patent US12064409B2, “Action of L-citrulline to prevent or treat endothelial dysfunction” (Asklepion Pharmaceuticals, LLC, priority 2021, dated 2024):
# Read-outs that look alike come from different tables or passages of the source.
# Key:
# [1] = in vivo; cited from earlier work
# [2] = in vivo, iv
# [3] = cited from earlier work
# [4] = human, in vivo; cited from earlier work
# [5] = test system: COVID-19 (SARS-CoV2); experiment: Example I, intravenous citrulline treatment of hospitalized Covid-19 patients; assay type: in vivo; conditions: intravenous bolus 20 mg/kg then 9 mg/kg per hour infusion up to 10 days
# Description: Subjects hospitalized and requiring oxygen for an acute hypoxemic respiratory illness due to COVID-19 (SARS-CoV2) will be treated. In addition, subjects will receive standard supportive care for acute hypoxemic respiratory illness and failure. The assessment of efficacy will include collection of plasma for analysis of citrulline and arginine levels at 2 hours, 12 hours, and the alternating morning of study days. Optionally, samples may also be analyzed for D-dimer and angiopoietin-2 levels.
# The assessment of efficacy will include collection of plasma for analysis of citrulline and arginine levels at 2 hours, 12 hours, and the alternating morning of hospitalization days. Additional efficacy measures will include clinical outcomes, including progression of acute lung injury and, lengths of hospital and ICU stay. The assessment of safety will include collection of hemodynamic measurements at least every 4 hours on a hospital unit.
# Patients will receive an initial intravenous bolus of 20 mg/kg (to a maximum of 1500 mg) L-citrulline over 10 minutes. The infusion solution will be prepared as a 5% isotonic solution (50 mg/mL) in 5% dextrose water. […]
# Participant survival will be assessed at hospital discharge. […] Hospital length of stay will be calculated as the number of days from admission to hospital discharge.
# [6] = Phase IB trial of intravenous L-citrulline versus placebo in children undergoing cardiopulmonary bypass (IND #66,261); assay type: in vivo
# Source text: FIG. 1. Duration of mechanical ventilation therapy following cardiopulmonary bypass in citrulline treated and control patients.
# FIG. 2. Duration of inotrope therapy following cardiopulmonary bypass in citrulline treated and control patients.
# FIG. 3. Maximum of mechanical ventilation or inotrope therapy (surrogate for duration of ICU stay) following cardiopulmonary bypass in citrulline treated and control patients.
# A recent study^39 carried out under IND #66,261 examined whether maintenance of plasma citrulline levels at steady state levels at or above 100 micromolar would prevent the occurrence of pulmonary complications of cardiopulmonary bypass in children undergoing congenital heart repair surgery. For pulmonary function, the endpoint was the post-operative duration of mechanical ventilation (see FIG. 1). Alternative endpoints included the duration of post-operative inotrope therapy (see FIG. 2) and the length of time in the intensive care unit (see FIG. 3).
# [7] = plasma citrulline 12 h postoperatively <37 μmol/L
structure (smiles),measurement,setting,value
"NC(=O)NCCC[C@H](N)C(=O)O [citrulline, L-citrulline]",half-life of citrulline in plasma,[1],about 1 hour
same,Drug-associated adverse events,[2],no drug-associated adverse events
same,Pulmonary hypertension absent (number of patients),[3]; [7],18
same,Pulmonary hypertension present (number of patients),[3]; [7],9
same,Pulmonary hypertension present (number of patients),"[3]; plasma citrulline 12 h postoperatively >37 μmol/L, P value .036",*0
same,Pulmonary hypertension absent (number of patients),[3]; plasma citrulline 12 h postoperatively >37 μmol/L,12
same,Adverse effects,[4],no observed adverse effects
same,Length of time to an intubation event from the start of study infusion,[5],extend the length of time to an intubation event
same,"Total length of all mechanical ventilation, including non-invasive modalities",[5],reduce the total length of all mechanical ventilation
same,Duration of mechanical ventilation therapy following cardiopulmonary bypass,"[6]; citrulline treated vs control patients, Wilcoxon rank-sum p=0.0089, plasma citrulline at or above 100 micromolar",treated differs from control
same,Duration of inotrope therapy following cardiopulmonary bypass,"[6]; citrulline treated vs control patients, Wilcoxon rank-sum p=0.0351",treated differs from control
same,Maximum of mechanical ventilation or inotrope therapy (surrogate for duration of ICU stay) following cardiopulmonary bypass,"[6]; citrulline treated vs control patients, Wilcoxon rank-sum p=0.0479",treated differs from control
same,Complications of cardiopulmonary bypass,"[6]; plasma citrulline maintained at or above 100 micromolar, by time on mechanical ventilation and duration of inotrope therapy",prevented the complications of bypass
